Experimental data from patent US9580390B2, “Indazole compounds as kinase inhibitors and method of treating cancer with same” (University Health Network, priority 2011, dated 2017).

What was measured:
human TTK = target: T1, human TTK (Homo sapiens, UniProt P33981); assay: TTK inhibition assay (indirect ELISA); type: biochemical; conditions: read-out: TTK IC50 Range
T1 construct: amino terminal GST fusion of full length human TTK; purchased Invitrogen
T1 sequence (P33981 1-857): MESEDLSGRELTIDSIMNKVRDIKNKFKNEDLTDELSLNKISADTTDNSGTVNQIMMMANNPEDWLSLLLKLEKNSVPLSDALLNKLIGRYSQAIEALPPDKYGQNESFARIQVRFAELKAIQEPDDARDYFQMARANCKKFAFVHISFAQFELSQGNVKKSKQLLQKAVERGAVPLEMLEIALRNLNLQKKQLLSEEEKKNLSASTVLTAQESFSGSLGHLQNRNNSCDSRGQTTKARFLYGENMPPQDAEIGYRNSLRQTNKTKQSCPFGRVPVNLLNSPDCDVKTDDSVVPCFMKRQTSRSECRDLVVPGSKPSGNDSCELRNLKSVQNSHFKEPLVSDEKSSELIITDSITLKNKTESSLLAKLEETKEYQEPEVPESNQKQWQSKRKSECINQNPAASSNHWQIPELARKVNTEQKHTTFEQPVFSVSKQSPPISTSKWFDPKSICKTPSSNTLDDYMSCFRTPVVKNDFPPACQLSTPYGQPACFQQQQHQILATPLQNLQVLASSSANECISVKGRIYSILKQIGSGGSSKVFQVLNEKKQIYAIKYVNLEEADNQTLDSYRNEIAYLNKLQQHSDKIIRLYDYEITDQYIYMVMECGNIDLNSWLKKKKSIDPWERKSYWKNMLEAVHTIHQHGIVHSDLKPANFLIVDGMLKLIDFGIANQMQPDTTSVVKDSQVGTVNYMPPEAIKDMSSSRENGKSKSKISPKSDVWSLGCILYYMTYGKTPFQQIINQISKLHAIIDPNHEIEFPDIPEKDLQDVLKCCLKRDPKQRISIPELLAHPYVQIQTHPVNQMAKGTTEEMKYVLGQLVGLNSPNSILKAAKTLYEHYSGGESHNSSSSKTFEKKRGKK

[1] = tested on: colon cancer cells (HCT116); assay: Cancer cell line growth inhibition (SRB assay); type: cell-based; conditions: Homo sapiens, HCT-116; HCT116 colon cancer cells, SRB assay; read-out: Cancer Cell Line GI50 Range HCT116
[2] = tested on: ovarian cancer cells (PA-1); assay: Cancer cell line growth inhibition (SRB assay); type: cell-based; conditions: PA-1 ovarian cancer cells, SRB assay; read-out: Cancer Cell Line GI50 Range PA-1

Row | Structure (SMILES) | IC50 (human TTK) [nM] | GI50 [1] [nM] | GI50 [2] [nM]
1 | CN1CCN(c2ccc(-c3n[nH]c4ccc(NC(=O)C(c5ccsc5)N5CCCC5)cc34)cc2)C(=O)C1 (stereo not shown) [Example A94, N-(3-(4-(4-Methyl-2-oxopiperazin-1-yl)phenyl)-1H-indazol-5-yl)-2-(pyrrolidin-1-yl)-2-(thiophen-3-yl)acetamide] | > 500 | – | –
2 | CC(C)C[C@H](NC(=O)c1ccc2[nH]nc(-c3ccc(N4[C@@H]5CC[C@H]4COC5)cc3)c2c1)c1ccccc1F [Example A519, 3-(4-((1R,5S)-3-oxa-8-azabicyclo[3.2.1]octan-8-yl)phenyl)-N-((S)-1-(2-fluorophenyl)-3-methylbutyl)-1H-indazole-5-carboxamide] | < 100 | – | –
3 | O=C(NCC1(N2CCC(F)(F)CC2)CCCCC1)c1ccc2[nH]nc(-c3ccc(N4CCOCC4)cc3)c2c1 [Example A457, N-((1-(4,4-difluoropiperidin-1-yl)cyclohexyl)methyl)-3-(4-morpholinophenyl)-1H-indazole-5-carboxamide] | 100 to 500 | – | –
4 | O=C(NCC1(N2CCOCC2)CCCOC1)c1ccc2[nH]nc(-c3ccc(N4[C@@H]5CC[C@H]4C[C@H](O)C5)cc3)c2c1 (stereo partly drawn) [Example A516, 3-(4-((1R,3S,5S)-3-hydroxy-8-azabicyclo[3.2.1]octan-8-yl)phenyl)-N-((3-morpholinotetrahydro-2H-pyran-3-yl)methyl)-1H-indazole-5-carboxamide] | < 100 | – | –
5 | O=C(NCC1(N2CCC(F)CC2)CCCCC1)c1ccc2[nH]nc(-c3ccc(N4CCOCC4)cc3)c2c1 [Example A456, N-((1-(4-fluoropiperidin-1-yl)cyclohexyl)methyl)-3-(4-morpholinophenyl)-1H-indazole-5-carboxamide] | 100 to 500 | – | –
6 | O=C(NCC1(N2CCOCC2)CCCOC1)c1ccc2[nH]nc(-c3ccc(N4[C@@H]5CC[C@H]4COC5)cc3)c2c1 (stereo partly drawn) [Example A517, 3-(4-((1R,5S)-3-oxa-8-azabicyclo[3.2.1]octan-8-yl)phenyl)-N-((3-morpholinotetrahydro-2H-pyran-3-yl)methyl)-1H-indazole-5-carboxamide] | < 100 | – | –
7 | O=C(NCC1(N2CCOCC2)CCCOC1)c1ccc2[nH]nc(-c3ccc(N4CCOCC4)cc3)c2c1 (stereo not shown) [Example A515, 3-(4-morpholinophenyl)-N-((3-morpholinotetrahydro-2H-pyran-3-yl)methyl)-1H-indazole-5-carboxamide] | < 100 | – | –
8 | CCN(C(=O)Nc1ccc2[nH]nc(-c3ccc(N4CCOCC4)cc3)c2c1)c1ccccc1 [Example A72, 1-ethyl-3-(3-(4-morpholinophenyl)-1H-indazol-5-yl)-1-phenylurea] | > 500 | – | –
9 | O=C(Nc1ccc2[nH]nc(-c3ccc(N4CCOCC4)cc3)c2c1)C(c1cccs1)N1CCCC1 (stereo not shown) [Example A82, N-(3-(4-morpholinophenyl)-1H-indazol-5-yl)-2-(pyrrolidin-1-yl)-2-(thiophen-2-yl)acetamide] | – | < 100 | < 100
10 | O=C(Nc1ccc2[nH]nc(-c3ccc(N4CCC(O)CC4)cc3)c2c1)C(c1cccs1)N1CCCC1 (stereo not shown) [Example A88, N-(3-(4-(4-hydroxypiperidin-1-yl)phenyl)-1H-indazol-5-yl)-2-(pyrrolidin-1-yl)-2-(thiophen-2-yl)acetamide] | – | < 100 | < 100

Further lines, results first:

Row | IC50 (human TTK) [nM] | GI50 [1] [nM] | GI50 [2] [nM] | Structure (SMILES)
11 | < 100 | – | – | CC(C)(C)C[C@H](NC(=O)c1ccc2[nH]nc(-c3ccc(N4CC(N5CCOCC5)C4)cc3)c2c1)c1ccccc1 [Example A520, (S)-N-(3,3-dimethyl-1-phenylbutyl)-3-(4-(3-morpholinoazetidin-1-yl)phenyl)-1H-indazole-5-carboxamide]
12 | 100 to 500 | – | – | O=C(NCC1(N2CCOCC2)CCCC1)c1ccc2[nH]nc(-c3ccc(OC4CCOCC4)cc3)c2c1 [Example A477, N-((1-morpholinocyclopentyl)methyl)-3-(4-((tetrahydro-2H-pyran-4-yl)oxy)phenyl)-1H-indazole-5-carboxamide]
13 | < 100 | – | – | CC(C)[C@H](NC(=O)c1ccc2[nH]nc(-c3ccc(N4CC(N5CCOCC5)C4)cc3)c2c1)c1ncccc1F [Example A522, (S)-N-(1-(3-fluoropyridin-2-yl)-2-methylpropyl)-3-(4-(3-morpholinoazetidin-1-yl)phenyl)-1H-indazole-5-carboxamide]
14 | < 100 | – | – | CC(C)C[C@H](NC(=O)c1ccc2[nH]nc(-c3ccc(N4CC(N5CCOCC5)C4)cc3)c2c1)c1ccccc1 [Example A521, (S)-N-(3-methyl-1-phenylbutyl)-3-(4-(3-morpholinoazetidin-1-yl)phenyl)-1H-indazole-5-carboxamide]
15 | – | 100 to 500 | 100 to 500 | COc1cc(-c2n[nH]c3ccc(C(=O)NC(c4ccccc4)C4CC4)cc23)ccc1OC1CCN(C2COC2)CC1 (stereo not shown) [Example A194, N-(cyclopropyl(phenyl)methyl)-3-(3-methoxy-4-((1-(oxetan-3-yl)piperidin-4-yl)oxy)phenyl)-1H-indazole-5-carboxamide]
16 | – | 100 to 500 | 100 to 500 | CN1CCC(Oc2ccc(-c3n[nH]c4ccc(C(=O)NC(c5ccccc5Cl)C5CCCC5)cc34)cc2)CC1 (stereo not shown) [Example A199, N-((2-chlorophenyl)(cyclopentyl)methyl)-3-(4-((1-methylpiperidin-4-yl)oxy)phenyl)-1H-indazole-5-carboxamide]
17 | – | 100 to 500 | 100 to 500 | CN(C)C(=O)CN1CCC(Oc2ccc(-c3n[nH]c4ccc(C(=O)NC(c5ccccc5)C5CC5)cc34)cc2)CC1 (stereo not shown) [Example A158, N-(cyclopropyl(phenyl)methyl)-3-(4-((1-(2-(dimethylamino)-2-oxoethyl)piperidin-4-yl)oxy)phenyl)-1H-indazole-5-carboxamide]
18 | – | < 100 | < 100 | O=C(Nc1ccc2[nH]nc(-c3ccc(N4CCC(O)CC4)cc3)c2c1)C(c1ccccc1)C1CC1 (stereo not shown) [Example A103, 2-cyclopropyl-N-(3-(4-(4-hydroxypiperidin-1-yl)phenyl)-1H-indazol-5-yl)-2-phenylacetamide]
19 | – | 100 to 500 | 100 to 500 | COc1cc(-c2n[nH]c3ccc(C(=O)NC(c4ccccn4)C4CC4)cc23)ccc1OC1CCN(C=O)CC1 (stereo not shown) [Example A206, N-(cyclopropyl(pyridin-2-yl)methyl)-3-(4-((1-formylpiperidin-4-yl)oxy)-3-methoxyphenyl)-1H-indazole-5-carboxamide]
20 | – | 100 to 500 | < 100 | O=C(NC(c1ccsc1)C1CCC1)c1ccc2[nH]nc(-c3ccc(N4CCOCC4)cc3)c2c1 (stereo not shown) [Example A123, N-(cyclobutyl(thiophen-3-yl)methyl)-3-(4-morpholinophenyl)-1H-indazole-5-carboxamide]
21 | – | 100 to 500 | 100 to 500 | CN1CCOC(c2ccc(-c3n[nH]c4ccc(C(=O)NC(c5ccccc5)C5CC5)cc34)cc2)C1 (stereo not shown) [Example A139, N-(cyclopropyl(phenyl)methyl)-3-(4-(4-methylmorpholin-2-yl)phenyl)-1H-indazole-5-carboxamide]
22 | – | 100 to 500 | > 500 | CN1CCC(Oc2ccc(-c3n[nH]c4ccc(C(=O)NCc5ccccc5CO)cc34)cc2)CC1 [Example A142, N-(2-(hydroxymethyl)benzyl)-3-(4-((1-methylpiperidin-4-yl)oxy)phenyl)-1H-indazole-5-carboxamide]
23 | – | < 100 | < 100 | O=C(NC(c1ccccc1)C1CC1)c1ccc2[nH]nc(-c3ccc(OC4CCN(CCO)CC4)cc3)c2c1 (stereo not shown) [Example A104, N-(cyclopropyl(phenyl)methyl)-3-(4-((1-(2-hydroxyethyl)piperidin-4-yl)oxy)phenyl)-1H-indazole-5-carboxamide]
